Here are results for 43 compounds from patent US20250177396A1, “POLO-LIKE KINASE 4 (PLK4) INHIBITORS, PHARMACEUTICAL COMPOSITIONS, METHODS OF PREPARATION AND USES THEREOF” (Repare Therapeutics Inc., priority 2022, published 2025).

Molecules are shown by their SMILES. pIC50: −log10 of the molar value.

What is called pIC50 is the IC50 on a negative log10 scale, so that one unit is a factor of ten. A high value points to a low IC50.

The target in this experiment is T1, PLK4 (Homo sapiens, UniProt O00444).
T1 construct: expressed in transfected cells; host or cells: HEK293 T cells (ATCC CRL-3216)
T1 sequence (O00444 1-970): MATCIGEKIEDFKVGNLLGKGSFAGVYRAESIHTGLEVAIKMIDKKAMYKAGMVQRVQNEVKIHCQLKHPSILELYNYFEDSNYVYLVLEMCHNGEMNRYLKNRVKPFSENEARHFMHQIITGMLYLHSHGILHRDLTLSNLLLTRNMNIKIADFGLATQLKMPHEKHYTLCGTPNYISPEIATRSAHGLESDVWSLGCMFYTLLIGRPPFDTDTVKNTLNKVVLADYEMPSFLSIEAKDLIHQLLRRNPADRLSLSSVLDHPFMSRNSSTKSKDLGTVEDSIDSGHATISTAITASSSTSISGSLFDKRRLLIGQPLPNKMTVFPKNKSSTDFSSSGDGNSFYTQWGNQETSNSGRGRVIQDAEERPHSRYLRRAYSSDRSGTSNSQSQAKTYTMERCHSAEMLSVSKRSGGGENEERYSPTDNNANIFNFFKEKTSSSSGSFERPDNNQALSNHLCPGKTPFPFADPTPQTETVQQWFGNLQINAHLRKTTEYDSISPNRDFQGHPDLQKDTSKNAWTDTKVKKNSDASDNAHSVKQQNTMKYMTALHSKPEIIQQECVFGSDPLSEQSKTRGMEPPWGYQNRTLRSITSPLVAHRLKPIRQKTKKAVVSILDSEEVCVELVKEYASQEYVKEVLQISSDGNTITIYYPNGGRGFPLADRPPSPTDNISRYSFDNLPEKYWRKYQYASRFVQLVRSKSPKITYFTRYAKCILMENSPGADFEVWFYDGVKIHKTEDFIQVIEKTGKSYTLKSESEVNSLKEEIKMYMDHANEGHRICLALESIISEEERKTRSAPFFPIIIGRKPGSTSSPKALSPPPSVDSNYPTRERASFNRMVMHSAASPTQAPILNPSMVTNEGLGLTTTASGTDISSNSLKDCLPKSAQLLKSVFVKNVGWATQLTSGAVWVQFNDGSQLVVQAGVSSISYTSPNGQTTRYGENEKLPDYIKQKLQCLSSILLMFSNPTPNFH
In words: PLK4 NanoBRET target engagement assay. In kind it is binding. Conditions: HEK293 T cells transfected with PLK4 NanoLuc fusion vector; K-5 tracer; 2 hrs incubation. The gist of the method: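 HEK293T cells transiently expressing PLK4-NanoLuc, plated at 17000 cells/well with K-5 tracer and compound, incubated 2 h at 37 °C/5% CO2. After substrate/inhibitor mix, 610/450 nm emission ratio ×1000 gave mBRET; IC50 from 4-parameter fit.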
(In general: BRET reads energy transfer from a luciferase to a nearby fluorophore.)
`Cc1cc(Nc2nc(N(C)c3c(F)cc(S(C)(=O)=O)cc3F)nc(-c3cn(C(F)F)cn3)c2C2CC2)n[nH]1` [Compound 128] showed a pIC50 of 8.22.
Take `Cc1cc(Nc2nc(N(C)c3c(F)cc(S(C)(=O)=O)cc3F)nc(-c3c(C)ncn3C)c2C2CC2)n[nH]1` [Compound 129]: the pIC50 was 7.24.
Take `Cc1cc(-c2nc(N(C)c3c(F)cc(S(C)(=O)=O)cc3F)nc(Nc3cc(C)[nH]n3)c2C2CC2)cnn1` [Compound 130]: the pIC50 was 7.62.
As to `Cc1cc(Nc2nc(N(C)c3c(F)cc(S(C)(=O)=O)cc3F)nc(-c3cnn(C(F)F)c3)c2C2CC2)n[nH]1` [Compound 131], the pIC50 is 8.05.
For the compound `Cc1cc(Nc2nc(N(C)c3cc(F)c(S(C)(=O)=O)cc3F)nc(-c3ccn(C)n3)c2C2CC2)n[nH]1` [Compound 133], the pIC50 was 7.74.
Turning to `Cc1cc(Nc2nc(N(C)c3c(F)cc(S(C)(=O)=O)cc3F)nc(-c3cncn3C)c2C2CC2)n[nH]1` [Compound 134], the pIC50 is 8.15.
As to `Cc1cc(Nc2nc(N(C)c3c(F)cc(S(C)(=O)=O)cc3F)nc(-c3ccncn3)c2C2CC2)n[nH]1` [Compound 135], the pIC50 is 7.74.
As for `CCn1cnc(-c2nc(N(C)c3c(F)cc(S(C)(=O)=O)cc3F)nc(Nc3cc(C)[nH]n3)c2C2CC2)c1` [Compound 136], the negative-log IC50 (pIC50) is 8.30.
Compound `Cc1cc(Nc2nc(N(C)c3c(F)cc(S(C)(=O)=O)cc3F)nc(-c3cn(C(C)C)cn3)c2C2CC2)n[nH]1` [Compound 137] had a pIC50 of 8.52.
Regarding `Cc1cc(Nc2nc(N(C)c3c(F)cc(S(C)(=O)=O)cc3F)nc(C3CC3)c2C2CC2)n[nH]1` [Compound 138], the pIC50 was 6.80.
As to `COCCn1cnc(-c2nc(N(C)c3c(F)cc(S(C)(=O)=O)cc3F)nc(Nc3cc(C)[nH]n3)c2C2CC2)c1` [Compound 139], the pIC50 is 8.40. Compared with the last compound, the pIC50 is 1.60 log units higher.
In turn, `Cc1cc(Nc2nc(N(C)c3c(F)cc(S(C)(=O)=O)cc3F)nc(-c3cn4c(n3)CCC4)c2C2CC2)n[nH]1` [Compound 140] showed a pIC50 of 8.52.
In turn, `Cc1cc(Nc2nc(N(C)c3c(F)cc(S(C)(=O)=O)cc3F)nc(-c3cnn(CCO)c3)c2C2CC2)n[nH]1` [Compound 141] had a pIC50 of 8.05.
The compound `Cc1cc(Nc2nc(N(C)c3c(F)cc(S(C)(=O)=O)cc3F)nc(-c3nccn3C)c2C2CC2)n[nH]1` [Compound 142] gave a pIC50 of 7.89.
As to `Cc1cc(Nc2nc(N(C)c3c(F)cc(S(C)(=O)=O)cc3F)nc(-c3cn(C(F)F)nc3C)c2C2CC2)n[nH]1` [Compound 143], the negative logarithm of the IC50 (pIC50) is 7.92.
The compound `Cc1cc(Nc2nc(N(C)c3c(F)cc(S(C)(=O)=O)cc3F)nc(-c3cc(C#N)n(C)n3)c2C2CC2)n[nH]1` [Compound 145] showed a pIC50 of 7.74. The pIC50 values of the last two compounds are within 0.2 log units of each other.
`Cc1cc(Nc2nc(N(C)c3c(F)cc(S(C)(=O)=O)cc3F)nc(-c3cccnn3)c2C2CC2)n[nH]1` [Compound 146] showed a pIC50 of 7.68.
Compound `COc1nn(C)cc1-c1nc(N(C)c2c(F)cc(S(C)(=O)=O)cc2F)nc(Nc2cc(C)[nH]n2)c1C1CC1` [Compound 147] had a negative logarithm of the IC50 (pIC50) of 8.30.
To `Cc1cc(Nc2nc(N(C)c3c(F)cc(S(C)(=O)=O)cc3F)nc(-c3cn(C4CC4)cn3)c2C2CC2)n[nH]1` [Compound 148] belongs 8.40.
To `Cc1cc(Nc2nc(N(C)c3c(F)cc(S(C)(=O)=O)cc3F)nc(-c3cn(C)nc3C(F)F)c2C2CC2)n[nH]1` [Compound 149] belongs 8.22; to `COCCn1ccc(-c2nc(N(C)c3c(F)cc(S(C)(=O)=O)cc3F)nc(Nc3cc(C)[nH]n3)c2C2CC2)n1` [Compound 150], 7.82; to `Cc1cc(Nc2nc(N(C)c3c(F)cc(S(C)(=O)=O)cc3F)nc(-c3oc(C)nc3C)c2C2CC2)n[nH]1` [Compound 151], 8.15.
To `[2H]C([2H])([2H])n1cc(-c2nc(N(C)c3c(F)cc(S(C)(=O)=O)cc3F)nc(Nc3cc(C)[nH]n3)c2C2CC2)c(C)n1` [Compound 152] belongs 8.30; to `[2H]C([2H])([2H])n1ncc(-c2nc(N(C)c3c(F)cc(S(C)(=O)=O)cc3F)nc(Nc3cc(C)[nH]n3)c2C2CC2)c1C` [Compound 153], 8.10; to `COc1c(-c2nc(N(C)c3c(F)cc(S(C)(=O)=O)cc3F)nc(Nc3cc(C)[nH]n3)c2C2CC2)cnn1C` [Compound 154], 8.00.
Regarding `Cc1cc(Nc2nc(N(C)c3c(F)cc(S(C)(=O)=O)cc3F)nc(-c3ccn(C(F)F)n3)c2C2CC2)n[nH]1` [Compound 155], the pIC50 was 8.00.
`Cc1cc(Nc2nc(N(C)c3c(F)cc(S(C)(=O)=O)cc3F)nc(-c3cnc(C)o3)c2C2CC2)n[nH]1` [Compound 156] showed a pIC50 of 7.96. The pIC50 values of the last two compounds are within 0.2 log units of each other.
Take `Cc1cc(Nc2nc(N(C)c3cc(F)c(S(C)(=O)=O)cc3F)nc(-c3cn(C)nc3C)c2C2CC2)n[nH]1` [Compound 159]: the pIC50 is 8.15.
The compound `COCCn1cc(-c2nc(N(C)c3c(F)cc(S(C)(=O)=O)cc3F)nc(Nc3cc(C)[nH]n3)c2C2CC2)c(C)n1` [Compound 160] had a pIC50 of 8.70. Against the preceding compound, the pIC50 is 0.55 log units higher.
As to `COCCn1ncc(-c2nc(N(C)c3c(F)cc(S(C)(=O)=O)cc3F)nc(Nc3cc(C)[nH]n3)c2C2CC2)c1C` [Compound 161], the pIC50 was 8.40.
Next, `Cc1cc(Nc2nc(N(C)c3c(F)cc(S(C)(=O)=O)cc3F)nc(-c3cc(C(F)F)n(C)n3)c2C2CC2)n[nH]1` [Compound 163]: 7.96; `COCc1nc(-c2nc(N(C)c3c(F)cc(S(C)(=O)=O)cc3F)nc(Nc3cc(C)[nH]n3)c2C2CC2)cn1C` [Compound 164]: 8.10; `Cc1cc(Nc2nc(N(C)c3c(F)cc(S(C)(=O)=O)cc3F)nc(-c3cn(C)c(C(F)F)n3)c2C2CC2)n[nH]1` [Compound 165]: 8.40.
Compound `COCc1cc(-c2nc(N(C)c3c(F)cc(S(C)(=O)=O)cc3F)nc(Nc3cc(C)[nH]n3)c2C2CC2)nn1C` [Compound 166] showed a pIC50 of 8.40.
Compound `Cc1cc(Nc2nc(N(C)c3c(F)cc(S(C)(=O)=O)cc3F)nc(-c3cn(C)c(CO)n3)c2C2CC2)n[nH]1` [Compound 167] had a negative logarithm of the IC50 (pIC50) of 7.52.
`Cc1cc(Nc2nc(N(C)c3c(F)cc(S(C)(=O)=O)cc3F)nc(-c3nc(C)[nH]c3C)c2C2CC2)n[nH]1` [Compound 168] showed a pIC50 of 7.39.
`Cc1cc(Nc2nc(N(C)c3c(F)cc(S(C)(=O)=O)cc3F)nc(-c3ccn(CCO)n3)c2C2CC2)n[nH]1` [Compound 169] showed a pIC50 of 8.40.
In the case of `Cc1cc(Nc2nc(N(C)c3c(F)cc(S(C)(=O)=O)cc3F)nc(-c3cnn(CC(=O)N(C)C)c3)c2C2CC2)n[nH]1` [Compound 170], the pIC50 was 7.96.
Next, `CNC(=O)Cn1cc(-c2nc(N(C)c3c(F)cc(S(C)(=O)=O)cc3F)nc(Nc3cc(C)[nH]n3)c2C2CC2)cn1` [Compound 171]: 7.64; `Cc1cc(Nc2nc(N(C)c3c(F)cc(S(C)(=O)=O)cc3F)nc(-c3cnn(CCS(C)(=O)=O)c3)c2C2CC2)n[nH]1` [Compound 172]: 8.22.
Consider `Cc1cc(Nc2nc(N(C)c3c(F)cc(S(C)(=O)=O)cc3F)nc(-c3ncn(C)c3C#N)c2C2CC2)n[nH]1` [Compound 173], for which the negative-log IC50 (pIC50) was 6.44.
For the compound `Cc1cc(Nc2nc(N(C)c3c(F)cc(S(C)(=O)=O)cc3F)nc(-c3cnn4c3CCC4)c2C2CC2)n[nH]1` [Compound 175], the pIC50 was 8.40.
Regarding `Cc1cc(Nc2nc(N(C)c3c(F)cc(S(C)(=O)=O)cc3F)nc(-c3cnn4c3CC(C)(C)C4)c2C2CC2)n[nH]1` [Compound 176], the pIC50 was 7.89.
